Measured values reported in patent publication US20210023074A1, “TREATMENT OF DEMYELINATING DISEASES” (Victoria Link Ltd., priority 2018, published 2021).

What was measured:
Assay type in all cases: in vivo, C57BL/6 mice
EAE-induced weight loss = settings: 0.1 or 0.03 mg/kg i.p. daily from day 17
Experimental: Experimental detail: Female, C57BL/6 mice were immunized subcutaneously (s.c.) in the hind flanks to induce EAE using myelin oligodendrocyte glycoprotein (MOG) peptide 35-55 (50 μg/mouse) in complete Freund's adjuvant containing heat-killed Mycobacterium tuberculosis (500 μg/mouse). In addition, pertussis toxin (200 ng/mouse) was administered intraperitoneally (i.p.) on days 0 and 2. Mice were weighed and scored daily. On day 17 (dotted line), mice were started on daily treatment with vehicle only (Veh; 10% tween and 10% DMSO in saline) or Nalmefene (NaIM) at 0.1, 0.03, or 0.01 mg/kg by i.p. injection. Nalmefene was supplied by University of Kansas, Synthetic Chemical Biology Core Laboratory, 97.6% pure by HPLC). Treatment allocation was blinded. The disease was scored from 0-5 with 0 (normal), 1 (partial tail paralysis), 2 (full tail paralysis), 3 (one hind limb paralysed or severe disability in both hind limbs), 4 (complete paralysis of both hind limbs) and 5 (moribund). This model is a standard disease model for multiple sclerosis and is described in White et al. 2018. Scientific Reports. 8:259 which is incorporated herein by reference in its entirety. […]
Experimental detail: EAE was induced in female C57BL/6 mice as described in Example 1. Mice were weighed daily and the % change in body weight calculated. […]

[1] = tested on: experimental autoimmune encephalomyelitis (EAE) mice; test: EAE model of MS, daily disease score (paralysis), treatment from day 17
Experimental: Experimental detail: Female, C57BL/6 mice were immunized subcutaneously (s.c.) in the hind flanks to induce EAE using myelin oligodendrocyte glycoprotein (MOG) peptide 35-55 (50 μg/mouse) in complete Freund's adjuvant containing heat-killed Mycobacterium tuberculosis (500 μg/mouse). In addition, pertussis toxin (200 ng/mouse) was administered intraperitoneally (i.p.) on days 0 and 2. Mice were weighed and scored daily. On day 17 (dotted line), mice were started on daily treatment with vehicle only (Veh; 10% tween and 10% DMSO in saline) or Nalmefene (NaIM) at 0.1, 0.03, or 0.01 mg/kg by i.p. injection. Nalmefene was supplied by University of Kansas, Synthetic Chemical Biology Core Laboratory, 97.6% pure by HPLC). Treatment allocation was blinded. The disease was scored from 0-5 with 0 (normal), 1 (partial tail paralysis), 2 (full tail paralysis), 3 (one hind limb paralysed or severe disability in both hind limbs), 4 (complete paralysis of both hind limbs) and 5 (moribund). This model is a standard disease model for multiple sclerosis and is described in White et al. 2018. Scientific Reports. 8:259 which is incorporated herein by reference in its entirety. Shown are results combined from 2 independent experiments. ****p<0.0001 by one-way ANOVA with Dunnett's multiple comparison test.
Experimental detail: EAE was induced in female C57BL/6 mice as described in Example 1. On day 17, mice were started on daily treatment with vehicle only (Veh) or nalmefene (NaIM) at 0.1 or 0.03 mg/kg by i.p. injection. The area under the curve (AUC) was calculated for each mouse based upon the daily disease score and represents the total disability experienced. Shown are results from 1 representative experiment. *p<0.05 by one-way ANOVA with Dunnett's multiple comparison test.
Experimental detail: EAE was induced in female C57BL/6 mice as described in Example 1. On day 17 (dotted line), mice were started on daily treatment with vehicle only (Veh) or nalmefene (NaIM) at 0.1 or 0.03 mg/kg by i.p. injection. Shown are mice that were not sick at the time of treatment but developed disease later. *p<0.05 by two-way ANOVA with Holm-Sidak's multiple comparison test.

[2] = tested on: lymphocyte populations in the spleen of EAE mice; test: Splenocyte flow cytometry in chronic phase of EAE; settings: 0.01 mg/kg i.p. daily, 27 days post treatment initiation
Experimental: Experimental detail: EAE was induced in female C57BL/6 mice as described in Example 1. On the day of disease onset (score >1), mice were started on daily treatment with vehicle only or nalmefene at 0.01 mg/kg by i.p. injection. During the chronic phase (27 days post treatment initiation), mice were culled and their splenocytes assessed by flow cytometry. The percentage of the major lymphocyte populations were identified using CD4 (CD4 T helper cells), CD8 (CD8 cytotoxic T cells), and B220 (B cells), and expressed as % live leukocytes (i.e. CD45^+ cells). Shown are the means and standard error of individual mice with n=3 (healthy), 4 (vehicle) and 9 (NaIM). No significant differences were found between vehicle and healthy or nalmefene by one-way ANOVA with Holm-Sidak's multiple comparison test.
Experimental detail: EAE was induced in female C57BL/6 mice as described in Figure A. On the day of disease onset (score >1), mice were started on daily treatment with vehicle only or nalmefene at 0.01 mg/kg by i.p. injection. During the chronic phase (27 days post treatment initiation), mice were culled and their splenocytes assessed by flow cytometry. Naïve CD4 T cells (CD4^+CD44^−CD62L^high), effector CD4 T cells (CD4^+CD44^+CD62L^−), and central memory CD4T cells (CD4^+CD44^+CD62L^high) are expressed as % CD4 T cells. “Teff:cm ratio” is the ratio of effector to central memory T cells. […]

[3] = tested on: myelin in spinal cord of EAE mice; test: TEM of spinal cord sections from EAE mice (myelination); settings: 0.03 mg/kg i.p. daily from day 17, day 45
Experimental: Experimental detail: EAE was induced in female C57BL/6 mice as described in Example 1. On day 17, mice were started on daily treatment with vehicle only or nalmefene at 0.03 mg/kg by i.p. injection. On day 45 after immunization to induce EAE, mice were culled and spinal cords were processed for transmission electron microscopy (TEM).

[4] = treated prior to disease onset, 0.1 or 0.03 mg/kg i.p. daily from day 17

C=C1CC[C@@]2(O)[C@H]3Cc4ccc(O)c5c4[C@@]2(CCN3CC2CC2)[C@H]1O5 [nalmefene, (4R,4aS,7aS,12bS)-3-(cyclopropylmethyl)-7-methylidene-2,4,5,6,7a,13-hexahydro-1H-4,12-methanobenzofuro[3,2-e]isoquinoline-4a,9-diol]
% change in body weight (EAE-induced weight loss): recover from EAE-induced weight loss
disease score (recovery from paralysis) ([1]; 0.1, 0.03 or 0.01 mg/kg i.p. daily from day 17, 45 days): reduction of disease in all nalmefene-treated groups indicates recovery from paralysis
reduction in disease (total disability, AUC of daily disease score) ([1]; 0.1 and 0.03 mg/kg i.p. daily from day 17, by day 45): 70%
total disability (AUC of disease score) ([1]; 0.1 or 0.03 mg/kg i.p. daily from day 17, by day 45): significantly lower total disability
onset of disease [1, 4]: did not alter the onset of disease
recovery from paralysis (disease score) [1, 4]: rapid recovery from paralysis
Teff:cm ratio (effector to central memory CD4 T cells) in spleen [2]: reduced ratio
proportion of major lymphocyte populations in the spleen (CD4, CD8, B220; % live leukocytes) [2]: does not alter the proportion of the major lymphocyte populations in the spleen
myelination of nerve axons in spinal cord (TEM) [3]: nerve axons appear healthy and well myelinated
